Blank lines part the entries; values can stand above or below the compound they belong to.
Key:
D2LR [1] = target: T1, D2LR (Homo sapiens, UniProt P14416); assay: ERK1/2 phosphorylation assay, interaction with dopamine; assay type: cell-based; conditions: for activity at the D2R in words: effect on dopamine concentration-response, highest concentration 300 μM; for Kb: operational model of allosterism (Equation 5)
Val91^2.61Ala D2R = Val91^2.61Ala D2R (Homo sapiens, UniProt P14416, V91A); assay: ERK1/2 phosphorylation assay at mutant D2R; assay type: cell-based
Sequence of Val91^2.61Ala D2R (P14416 whole entry V91A): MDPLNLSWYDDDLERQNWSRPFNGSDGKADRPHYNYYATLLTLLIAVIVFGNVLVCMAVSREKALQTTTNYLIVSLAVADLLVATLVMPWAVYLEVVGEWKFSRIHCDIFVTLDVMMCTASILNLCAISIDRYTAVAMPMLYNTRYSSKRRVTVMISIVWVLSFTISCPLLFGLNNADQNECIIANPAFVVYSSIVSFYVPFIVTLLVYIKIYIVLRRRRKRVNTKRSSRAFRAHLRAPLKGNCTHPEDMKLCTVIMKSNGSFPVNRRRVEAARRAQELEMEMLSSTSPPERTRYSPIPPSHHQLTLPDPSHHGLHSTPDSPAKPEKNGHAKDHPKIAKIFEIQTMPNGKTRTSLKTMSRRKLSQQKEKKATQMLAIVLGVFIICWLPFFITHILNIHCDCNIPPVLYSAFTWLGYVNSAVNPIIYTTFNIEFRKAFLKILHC

Glu95^2.65Ala D2R = Glu95^2.65Ala D2R (Homo sapiens, UniProt P14416, E95A); assay: ERK1/2 phosphorylation assay at mutant D2R; assay type: cell-based
Sequence of Glu95^2.65Ala D2R (P14416 whole entry E95A): as the sequence (P14416 whole entry V91A) above, with A91V, E95A counted along it

D2LR [2] = target: T1, D2LR; assay: BRET cAMP assay; assay type: cell-based
D2R [3] = target: T2, D2R (Homo sapiens, UniProt P14416); assay: [3H]spiperone binding assay
T2 sequence (P14416 whole entry): as the sequence (P14416 whole entry V91A) above, with A91V counted along it

D2R [4] = target: T2, D2R; assay: Interaction of bitopic ligand 36 with dopamine at the D2R
D2R [5] = target: T2, D2R; assay: [35S]GTPγS binding assay, interaction with dopamine; assay type: biochemical; conditions: composite cooperativity with dopamine
[6] = Table 3, binding cooperativity with dopamine
[7] = Table 4, binding cooperativity with dopamine
[8] = WT D2R, binding cooperativity with dopamine

T1 sequence (P14416 whole entry): as the sequence (P14416 whole entry V91A) above, with A91V counted along it

Compound: CCCCNC(=O)c1cc2ccccc2[nH]1 [Compound 11d, N-Butyl-1H-indole-2-carboxamide]
increase in affinity compared to 3 (D2LR [1]): 7 fold
increase in negative cooperativity compared to 3 (D2LR [1]): 10 fold
Logα (D2LR [1]; [6]): −1.63 ± 0.11
Logα (D2LR [1]; Table 5, Wild Type): −1.63 ± 0.11
α (D2LR [1]; Table 5, Wild Type): 0.02
Logβ (D2LR [1]; Table 5, Wild Type, constrained): −100
decrease in affinity caused by mutation (Val91^2.61Ala D2R; Val91^2.61Ala vs WT): 14 fold
Logα (Glu95^2.65Ala D2R; Table 5, Glu95^2.65Ala): −1.24 ± 0.17
α (Glu95^2.65Ala D2R; Table 5, Glu95^2.65Ala): 0.05
Logβ (Glu95^2.65Ala D2R; Table 5, Glu95^2.65Ala, no modulation of dopamine efficacy): 0

Compound: O=C(NC1CCC1)c1cc2ccccc2[nH]1 [Compound 11p, N-Cyclobutyl-1H-indole-2-carboxamide]
Logα (D2LR [1]; [6]): −1.77 ± 0.27

Compound: O=C(NCCO)c1cc2ccccc2[nH]1 [Compound 11f, N-(2-Hydroxyethyl)-1H-indole-2-carboxamide]
activity at the D2R in words (D2LR [1]): inactivity

Compound: O=C(NC1CCCC1)c1cc2ccccc2[nH]1 [Compound 11q, N-Cyclopentyl-1H-indole-2-carboxamide]
Logα (D2LR [1]; [6]): −0.63 ± 0.11

Compound: O=C(NN1CCCCC1)c1cc2ccccc2[nH]1 [Compound 11s, N-(Piperidin-1-yl)-1H-indole-2-carboxamide]
Logα (D2LR [1]; [6]): −0.53 ± 0.13

Compound: CCCNC(=O)c1cc2ccccc2[nH]1 [Compound 11c, N-Propyl-1H-indole-2-carboxamide]
Logα (D2LR [1]; [6]): −0.60 ± 0.09

Compound: CCCN(CCC)CC[C@H]1CC[C@H](NC(=O)c2cc3ccccc3[nH]2)CC1 [Compound 9b, N-((trans)-4-(2-(Dipropylamino)ethyl)cyclohexyl)-1H-indole-2-carboxamide]
mode of action in words (D2LR [1]; pERK1/2 assay): partial agonist
mode of action in words (D2LR [2]): competitive partial agonist
Ki (D2R [3]): 20000 nM

Compound: CC(C)(C)NC(=O)c1cc2ccccc2[nH]1 [Compound 11h, N-(tert-Butyl)-1H-indole-2-carboxamide]
Logα (D2LR [1]; [6]): −0.58 ± 0.13

Compound: CC(C)NC(=O)c1cc2cccnc2[nH]1 [Compound 27, N-Isopropyl-1H-pyrrolo[2,3-b]pyridine-2-carboxamide]
activity at the D2R in words (D2LR [1]): lack of activity

Compound: CC(C)NC(=O)c1cc2ccccc2n1C [Compound 17, N-Isopropyl-1-methyl-1H-indole-2-carboxamide]
activity at the D2R in words (D2LR [1]): did not show activity

Compound: O=C(NC1CCCCC1)c1cc2ccccc2[nH]1 [Compound 11r, N-Cyclohexyl-1H-indole-2-carboxamide]
activity at the D2R in words (D2LR [1]): no determinable activity

Compound: NCCc1ccc(O)c(O)c1 [dopamine, reference compound]
LogτA (D2LR [1]; WT D2R expressing cell line): 0.74 ± 0.07
LogτA (Val91^2.61Ala D2R; V91A D2R expressing cell line): 0.65 ± 0.19
LogτA (Glu95^2.65Ala D2R; E95A D2R expressing cell line): 0.71 ± 0.24

Compound: N#Cc1ccc2c(c1)CN(CCCCNC(=O)c1cc3ccccc3[nH]1)CC2 [Compound 36, N-(4-(7-Cyano-3,4-dihydroisoquinolin-2(1H)-yl)butyl)-1H-indole-2-carboxamide]
Kb (D2R [4]): 81.3 nM
increase in affinity as compared to 1 (D2R [4]): 10 fold
Logαβ (D2R [4]; Figure 7, negative cooperativity with dopamine): −1.32 ± 0.09

Compound: C=CCNC(=O)c1cc2ccccc2[nH]1 [Compound 11e, N-Allyl-1H-indole-2-carboxamide]
Logα (D2LR [1]; [6]): −0.26 ±0.06

Compound: CN(C)CC[C@H]1CC[C@H](NC(=O)c2cc3ccccc3[nH]2)CC1.Cl [Compound 9a, N-((trans)-4-(2-(Dimethylamino)ethyl)cyclohexyl)-1H-indole-2-carboxamide hydrochloride]
Kb (D2LR [1]; KB, WT D2R): 3000 nM
Logα (D2LR [1]; [8]): −0.61 ± 0.14
α (D2LR [1]; [8]): 0.25
Logβ (D2LR [1]; WT D2R, modulation of dopamine efficacy, fixed to −100 in the fit): −100
Kb (D2LR [1]; pKB, WT D2R): 2880 nM
Logαβ (D2R [5]): −0.84 ± 0.15
αβ (D2R [5]; <1 negative): 0.14

Compound: CC(C)NC(=O)c1nc2ccccc2[nH]1 [Compound 19, N-Isopropyl-1H-benzo[d]imidazole-2-carboxamide]
Logα (D2LR [1]; [7]): −1.07 ± 0.22

Compound: CC(C)N(C(=O)c1cc2ccccc2[nH]1)C(C)C [Compound 11j, N,N-Diisopropyl-1H-indole-2-carboxamide]
Logα (D2LR [1]; [6]): −1.39 ± 0.11

Compound: NC(=O)c1cc2ccccc2[nH]1 [Compound 11a, 1H-Indole-2-carboxamide]
activity at the D2R in words (D2LR [1]): does not exhibit receptor binding

Compound: CC(C)NC(=O)c1nc2ccccc2o1 [Compound 21, N-Isopropylbenzo[d]oxazole-2-carboxamide]
activity at the D2R in words (D2LR [1]): did not show activity

Compound: CCNC(=O)c1cc2ccccc2[nH]1 [Compound 11b, N-Ethyl-1H-indole-2-carboxamide]
Logα (D2LR [1]; [6]): −0.35 ± 0.21

The next lines start with the values.

activity at the D2R in words (D2LR [1]): devoid of detectable activity
Compound: CC(C)NC(=O)c1cccc2cc[nH]c12 [Compound 30d, N-Isopropyl-1H-indole-7-carboxamide]

activity at the D2R in words (D2LR [1]): devoid of detectable activity
Compound: CC(C)NC(=O)c1cccc2[nH]ccc12 [Compound 30a, N-Isopropyl-1H-indole-4-carboxamide]

Logα (D2LR [1]; [6]): −0.72 ± 0.35
α (D2LR [1]; [6]): 0.19
Compound: CC(C)NC(=O)c1[nH]c2ccccc2c1F [Compound 13a, 3-Fluoro-N-isopropyl-1H-indole-2-carboxamide]

Logα (D2LR [1]; [7]): −1.27 ± 0.3
Compound: CC(C)NC(=O)c1ccc2[nH]ccc2c1 [Compound 30b, N-Isopropyl-1H-indole-5-carboxamide]

Logα (D2LR [1]; [6]): −0.96 ± 0.12
Compound: CC(C)NC(=O)c1cc2cccc(F)c2[nH]1 [Compound 13e, 7-Fluoro-N-isopropyl-1H-indole-2-carboxamide]

Logα (D2LR [1]; [6]): −1.14 ± 0.10
Compound: CC(C)NC(=O)c1cc2c(F)cccc2[nH]1 [Compound 13b, 4-Fluoro-N-isopropyl-1H-indole-2-carboxamide]

activity at the D2R in words (D2LR [1]): did not show activity
Compound: CC(C)NC(=O)c1csc2ccccc12 [Compound 25b, N-Isopropylbenzo[b]thiophene-3-carboxamide]

Logα (D2LR [1]; [7]): −1.1 ± 0.3
Compound: CC(C)NC(=O)c1ccc2cc[nH]c2c1 [Compound 30c, N-Isopropyl-1H-indole-6-carboxamide]

Reference: article PMC10823399 (Journal of medicinal chemistry, 2015)
